Key:
[1] = target: T1, Angiotensin-converting enzyme (Oryctolagus cuniculus, UniProt P12822); experiment: Inhibition of rabbit lung somatic ACE using FAPGG substrate
T1 sequence (P12822 whole entry): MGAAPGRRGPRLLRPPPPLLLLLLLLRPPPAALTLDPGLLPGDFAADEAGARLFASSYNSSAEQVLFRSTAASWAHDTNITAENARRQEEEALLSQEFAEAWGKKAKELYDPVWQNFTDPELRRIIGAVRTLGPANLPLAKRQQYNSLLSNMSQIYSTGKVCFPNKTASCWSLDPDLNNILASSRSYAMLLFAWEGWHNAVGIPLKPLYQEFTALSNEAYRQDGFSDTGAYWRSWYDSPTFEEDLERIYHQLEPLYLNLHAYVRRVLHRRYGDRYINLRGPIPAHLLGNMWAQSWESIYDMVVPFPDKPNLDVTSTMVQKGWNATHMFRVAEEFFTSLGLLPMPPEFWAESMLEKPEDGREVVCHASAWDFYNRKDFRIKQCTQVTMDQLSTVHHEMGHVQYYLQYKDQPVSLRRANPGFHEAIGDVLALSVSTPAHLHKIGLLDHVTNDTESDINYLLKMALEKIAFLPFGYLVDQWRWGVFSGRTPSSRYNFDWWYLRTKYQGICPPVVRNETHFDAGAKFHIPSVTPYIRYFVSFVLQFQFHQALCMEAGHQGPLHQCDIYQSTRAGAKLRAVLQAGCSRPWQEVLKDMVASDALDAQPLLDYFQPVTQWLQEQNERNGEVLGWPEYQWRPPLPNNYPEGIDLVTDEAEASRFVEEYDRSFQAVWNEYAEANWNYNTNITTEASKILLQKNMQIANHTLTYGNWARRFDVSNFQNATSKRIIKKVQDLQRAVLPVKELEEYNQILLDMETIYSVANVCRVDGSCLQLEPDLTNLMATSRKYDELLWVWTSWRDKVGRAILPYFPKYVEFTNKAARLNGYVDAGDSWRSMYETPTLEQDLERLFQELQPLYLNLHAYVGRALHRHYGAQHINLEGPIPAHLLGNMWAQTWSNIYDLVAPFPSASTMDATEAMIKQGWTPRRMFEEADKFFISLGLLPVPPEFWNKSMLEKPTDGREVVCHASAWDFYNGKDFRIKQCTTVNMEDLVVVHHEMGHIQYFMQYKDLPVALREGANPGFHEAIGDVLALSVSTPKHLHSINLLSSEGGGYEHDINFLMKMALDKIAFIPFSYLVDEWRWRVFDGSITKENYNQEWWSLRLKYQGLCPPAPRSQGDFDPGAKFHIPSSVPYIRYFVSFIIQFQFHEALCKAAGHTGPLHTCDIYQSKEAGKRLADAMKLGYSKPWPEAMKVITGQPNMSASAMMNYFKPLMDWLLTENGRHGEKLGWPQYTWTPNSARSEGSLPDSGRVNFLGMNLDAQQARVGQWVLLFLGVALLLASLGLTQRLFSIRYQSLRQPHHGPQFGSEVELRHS

[2] = target: T2, Angiotensin-converting enzyme (Homo sapiens, UniProt P12821); experiment: Inhibition of human ACE N-terminal domain using Cbz-Phe-His-Leu-OH substrate
[3] = Inhibition of Schwanella oneidensis dipeptidyl carboxypeptidase assessed as FAPGG substrate hydrolysis
[4] = Inhibition of Astrosporangium hypotensionis dicarboxypeptidase assessed as FAPGG substrate hydrolysis
[5] = target: T2, Angiotensin-converting enzyme; experiment: Inhibition of human ACE C-terminal domain using Cbz-Phe-His-Leu-OH substrate
[6] = target: T3, Dipeptidyl carboxypeptidase (Escherichia coli (strain K12), UniProt P24171); experiment: Inhibition of Escherichia coli dipeptidyl carboxypeptidase assessed as FAPGG substrate hydrolysis
T3 sequence (P24171 whole entry): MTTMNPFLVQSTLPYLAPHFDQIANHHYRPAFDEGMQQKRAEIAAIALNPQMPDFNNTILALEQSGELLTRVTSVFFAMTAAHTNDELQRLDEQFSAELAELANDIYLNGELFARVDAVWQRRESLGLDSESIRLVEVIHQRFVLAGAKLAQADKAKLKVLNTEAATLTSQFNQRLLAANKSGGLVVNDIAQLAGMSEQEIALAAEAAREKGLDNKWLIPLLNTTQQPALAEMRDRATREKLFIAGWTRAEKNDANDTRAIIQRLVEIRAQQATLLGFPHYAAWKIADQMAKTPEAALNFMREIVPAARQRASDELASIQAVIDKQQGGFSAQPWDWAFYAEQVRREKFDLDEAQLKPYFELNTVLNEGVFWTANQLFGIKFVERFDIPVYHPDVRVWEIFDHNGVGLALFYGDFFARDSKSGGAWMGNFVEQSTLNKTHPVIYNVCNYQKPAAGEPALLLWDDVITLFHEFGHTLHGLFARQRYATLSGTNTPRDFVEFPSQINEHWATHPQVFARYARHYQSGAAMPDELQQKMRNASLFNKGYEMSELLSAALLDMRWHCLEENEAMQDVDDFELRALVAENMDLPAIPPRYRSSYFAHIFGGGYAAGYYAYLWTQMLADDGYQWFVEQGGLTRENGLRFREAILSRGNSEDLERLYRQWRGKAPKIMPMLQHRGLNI

[7] = target: T2, Angiotensin-converting enzyme; experiment: Inhibition of ACE (unknown origin)

T2 sequence (P12821 whole entry, the tested form may be a part): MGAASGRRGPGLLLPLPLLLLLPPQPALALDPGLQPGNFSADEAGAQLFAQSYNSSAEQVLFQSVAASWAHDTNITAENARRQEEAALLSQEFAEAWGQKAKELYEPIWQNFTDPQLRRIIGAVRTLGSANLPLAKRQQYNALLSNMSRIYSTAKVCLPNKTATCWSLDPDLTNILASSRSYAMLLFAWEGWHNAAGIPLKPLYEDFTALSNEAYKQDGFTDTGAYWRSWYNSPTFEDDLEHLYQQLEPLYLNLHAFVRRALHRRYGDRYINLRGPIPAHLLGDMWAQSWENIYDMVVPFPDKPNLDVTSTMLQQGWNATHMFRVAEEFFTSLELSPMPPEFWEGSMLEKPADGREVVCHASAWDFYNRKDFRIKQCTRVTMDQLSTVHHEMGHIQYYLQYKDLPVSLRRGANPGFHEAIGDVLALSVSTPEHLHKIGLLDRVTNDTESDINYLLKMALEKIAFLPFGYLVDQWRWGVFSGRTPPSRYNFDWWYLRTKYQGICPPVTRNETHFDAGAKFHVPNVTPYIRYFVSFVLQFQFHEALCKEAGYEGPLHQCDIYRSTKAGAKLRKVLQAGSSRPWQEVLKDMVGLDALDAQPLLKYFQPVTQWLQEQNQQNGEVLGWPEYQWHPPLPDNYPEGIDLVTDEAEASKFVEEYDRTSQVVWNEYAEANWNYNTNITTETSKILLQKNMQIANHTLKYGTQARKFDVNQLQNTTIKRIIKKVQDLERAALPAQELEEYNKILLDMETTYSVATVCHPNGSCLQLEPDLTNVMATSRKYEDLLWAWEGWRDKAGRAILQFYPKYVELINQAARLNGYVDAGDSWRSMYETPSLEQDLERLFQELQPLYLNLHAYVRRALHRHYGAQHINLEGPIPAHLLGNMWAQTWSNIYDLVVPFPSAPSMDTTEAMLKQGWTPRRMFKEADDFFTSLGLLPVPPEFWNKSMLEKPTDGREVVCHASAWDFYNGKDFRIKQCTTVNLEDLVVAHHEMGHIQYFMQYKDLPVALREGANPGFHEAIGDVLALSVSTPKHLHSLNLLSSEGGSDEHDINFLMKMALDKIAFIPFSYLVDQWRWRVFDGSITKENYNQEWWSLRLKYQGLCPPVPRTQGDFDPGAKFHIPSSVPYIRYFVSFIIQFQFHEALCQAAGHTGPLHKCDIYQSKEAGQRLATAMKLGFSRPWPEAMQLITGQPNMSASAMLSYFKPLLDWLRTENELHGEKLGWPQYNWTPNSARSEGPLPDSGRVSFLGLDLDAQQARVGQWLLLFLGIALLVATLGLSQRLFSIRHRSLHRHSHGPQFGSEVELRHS

| Structure (SMILES) | IC50 [1] | IC50 [2] | IC50 [5] | also measured |
| --- | --- | --- | --- | --- |
| CN[C@H](C(=O)N[C@@H](Cc1ccccc1)C(=O)N[C@@H](Cc1ccc(O)cc1)P(=O)(O)O)C(C)C | 370 nM | 220 nM | 590 nM |  |
| CN[C@H](C(=O)N[C@@H](Cc1ccc(O)cc1)C(=O)N[C@@H](Cc1ccc(O)cc1)P(=O)(O)O)C(C)C | 140 nM | 52 nM | 54 nM |  |
| CC[C@H](C)[C@H](NC(C)=O)C(=O)N[C@@H](Cc1ccccc1)C(=O)N[C@@H](Cc1ccc(O)cc1)P(=O)(O)O | 35 nM |  |  |  |
| CC[C@H](C)[C@H](NC(C)=O)C(=O)N[C@@H](CCC(=O)O)C(=O)N[C@@H](Cc1ccc(O)cc1)P(=O)(O)O | 5200 nM |  |  |  |
| N[C@@H](Cc1ccc(O)cc1)P(=O)(O)O |  |  |  | IC50 [7]: > 1000 nM |

Continued, in another order:

| IC50 [1] | IC50 [2] | IC50 [5] | Structure (SMILES) | also measured |
| --- | --- | --- | --- | --- |
| 25 nM | 110 nM | 11 nM | CC[C@H](C)[C@H](NC(C)=O)C(=O)N[C@@H](Cc1ccc(O)cc1)C(=O)N[C@@H](Cc1ccc(O)cc1)P(=O)(O)O | Ki [2]: 75 nM; IC50 [3]: 11000 nM; IC50 [4]: 40000 nM; Ki [5]: 11 nM; IC50 [6]: 150000 nM |
| 100 nM | 76 nM | 12 nM | CC[C@H](C)[C@H](NC(C)=O)C(=O)N[C@@H](CC(C)C)C(=O)N[C@@H](Cc1ccc(O)cc1)P(=O)(O)O | Ki [2]: 33 nM; Ki [5]: 21 nM |
